Assay results from patent US12391683B2, “Therapeutic compounds and methods” (Actio Biosciences, Inc., priority 2022, dated 2025).
Several values for one entry are separate records, joined by “and”; a condition that tells them apart may be missing. Identical values can stand only once.

Legend:
Human TRPV4 = Human TRPV4 (Homo sapiens, UniProt Q9HBA0); assay: TRP Family FLIPR Assay, TRPV4; format: cell-based; set-up: expressed in transfected cells; host or cells: CHO; conditions: CHO cells
Procedure: (§1) The compound of Example 5 was tested for selectivity against a panel of Human TRP family ion channels in a TRP Family FLIPR Assay as described below. • 1. TRPC3 channels (human TRPC3 variant 1 gene, expressed in HEK293 cells). • 2. TRPC4 channels (human TRPC4 gene, expressed in HEK293 cells). • 3. TRPC5 channels (human TRPC5 gene, expressed in HEK293 cells). • 4. TRPC6 channels (human TRPC6 gene, expressed in HEK293 cells). • 5. TRPM2 channels (human TRPM2 gene, transiently expressed in HEK293 cells). • 6. TRPM3 channels (human TRPM3 gene, transiently expressed in HEK293 cells). • 7. TRPM4 channels (human TRPM4 gene, expressed in CHO cells). • 8. […]
(§2) Data acquisition was performed via the FLIPR Control software supplied with the FLIPR System (MDS-AT) and data was analyzed using Microsoft Excel (Microsoft Corp., Redmond, WA) or GraphPad Prism. […]
(§3) [formula] where Base is the response at low concentrations of test article, Max is the maximum response at high concentrations, xhalf the EC50, or IC50, the concentration of test article producing either half-maximal activation or inhibition, and rate is the Hill coefficient. […] No assumptions about the fit parameters was made; the fit parameters were determined by the algorithm.
(§4) The effect of each test article was evaluated at eight (8) concentrations: 0.003, 0.01, 0.03, 0.1, 0.3, 1, 3 and 10 μM, n≤4 wells/concentration). […]

TRPM4 channels = target: T1, TRPM4 channels (Homo sapiens, UniProt Q8TD43); assay: TRP Family FLIPR Assay, TRPM4; format: cell-based; conditions: CHO cells
T1 construct: expressed in transfected cells; host or cells: CHO
T1 sequence (Q8TD43 whole entry): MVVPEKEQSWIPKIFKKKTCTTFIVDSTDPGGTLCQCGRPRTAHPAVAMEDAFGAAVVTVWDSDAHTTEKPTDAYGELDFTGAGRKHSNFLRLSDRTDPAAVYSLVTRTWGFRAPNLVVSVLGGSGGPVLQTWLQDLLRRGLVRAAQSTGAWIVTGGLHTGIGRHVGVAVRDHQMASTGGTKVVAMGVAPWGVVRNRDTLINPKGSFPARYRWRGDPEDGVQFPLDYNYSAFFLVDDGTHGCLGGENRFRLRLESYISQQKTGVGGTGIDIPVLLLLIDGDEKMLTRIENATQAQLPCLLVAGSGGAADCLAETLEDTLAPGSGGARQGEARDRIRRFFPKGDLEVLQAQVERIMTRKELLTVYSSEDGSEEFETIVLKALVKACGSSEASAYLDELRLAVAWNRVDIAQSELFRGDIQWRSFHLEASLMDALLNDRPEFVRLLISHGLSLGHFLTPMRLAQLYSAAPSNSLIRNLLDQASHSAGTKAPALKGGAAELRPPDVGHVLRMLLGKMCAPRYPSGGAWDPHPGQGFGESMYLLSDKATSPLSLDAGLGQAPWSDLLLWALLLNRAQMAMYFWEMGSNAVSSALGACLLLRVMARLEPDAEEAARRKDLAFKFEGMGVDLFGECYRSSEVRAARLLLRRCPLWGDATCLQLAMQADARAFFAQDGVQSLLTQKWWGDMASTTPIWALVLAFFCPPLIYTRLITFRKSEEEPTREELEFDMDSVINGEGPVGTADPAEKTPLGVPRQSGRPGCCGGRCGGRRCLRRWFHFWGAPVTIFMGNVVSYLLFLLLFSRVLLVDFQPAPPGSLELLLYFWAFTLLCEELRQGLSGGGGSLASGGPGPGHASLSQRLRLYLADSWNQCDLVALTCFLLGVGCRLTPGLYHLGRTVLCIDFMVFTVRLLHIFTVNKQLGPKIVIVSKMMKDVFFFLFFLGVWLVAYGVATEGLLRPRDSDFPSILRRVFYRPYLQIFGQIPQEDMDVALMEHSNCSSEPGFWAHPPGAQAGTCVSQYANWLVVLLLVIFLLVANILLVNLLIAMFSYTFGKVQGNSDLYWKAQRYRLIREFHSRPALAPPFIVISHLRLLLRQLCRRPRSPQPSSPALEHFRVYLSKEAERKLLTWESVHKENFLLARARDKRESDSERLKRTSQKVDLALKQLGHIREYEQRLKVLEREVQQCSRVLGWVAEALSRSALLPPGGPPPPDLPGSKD
Procedure: as §1, §2, §3, §4

TRPM2 channels = target: T2, TRPM2 channels (Homo sapiens, UniProt O94759); assay: TRP Family FLIPR Assay, TRPM2; format: cell-based; conditions: HEK293 cells (transient)
T2 construct: expressed in transfected cells; host or cells: HEK293 (transient)
T2 sequence (O94759 whole entry): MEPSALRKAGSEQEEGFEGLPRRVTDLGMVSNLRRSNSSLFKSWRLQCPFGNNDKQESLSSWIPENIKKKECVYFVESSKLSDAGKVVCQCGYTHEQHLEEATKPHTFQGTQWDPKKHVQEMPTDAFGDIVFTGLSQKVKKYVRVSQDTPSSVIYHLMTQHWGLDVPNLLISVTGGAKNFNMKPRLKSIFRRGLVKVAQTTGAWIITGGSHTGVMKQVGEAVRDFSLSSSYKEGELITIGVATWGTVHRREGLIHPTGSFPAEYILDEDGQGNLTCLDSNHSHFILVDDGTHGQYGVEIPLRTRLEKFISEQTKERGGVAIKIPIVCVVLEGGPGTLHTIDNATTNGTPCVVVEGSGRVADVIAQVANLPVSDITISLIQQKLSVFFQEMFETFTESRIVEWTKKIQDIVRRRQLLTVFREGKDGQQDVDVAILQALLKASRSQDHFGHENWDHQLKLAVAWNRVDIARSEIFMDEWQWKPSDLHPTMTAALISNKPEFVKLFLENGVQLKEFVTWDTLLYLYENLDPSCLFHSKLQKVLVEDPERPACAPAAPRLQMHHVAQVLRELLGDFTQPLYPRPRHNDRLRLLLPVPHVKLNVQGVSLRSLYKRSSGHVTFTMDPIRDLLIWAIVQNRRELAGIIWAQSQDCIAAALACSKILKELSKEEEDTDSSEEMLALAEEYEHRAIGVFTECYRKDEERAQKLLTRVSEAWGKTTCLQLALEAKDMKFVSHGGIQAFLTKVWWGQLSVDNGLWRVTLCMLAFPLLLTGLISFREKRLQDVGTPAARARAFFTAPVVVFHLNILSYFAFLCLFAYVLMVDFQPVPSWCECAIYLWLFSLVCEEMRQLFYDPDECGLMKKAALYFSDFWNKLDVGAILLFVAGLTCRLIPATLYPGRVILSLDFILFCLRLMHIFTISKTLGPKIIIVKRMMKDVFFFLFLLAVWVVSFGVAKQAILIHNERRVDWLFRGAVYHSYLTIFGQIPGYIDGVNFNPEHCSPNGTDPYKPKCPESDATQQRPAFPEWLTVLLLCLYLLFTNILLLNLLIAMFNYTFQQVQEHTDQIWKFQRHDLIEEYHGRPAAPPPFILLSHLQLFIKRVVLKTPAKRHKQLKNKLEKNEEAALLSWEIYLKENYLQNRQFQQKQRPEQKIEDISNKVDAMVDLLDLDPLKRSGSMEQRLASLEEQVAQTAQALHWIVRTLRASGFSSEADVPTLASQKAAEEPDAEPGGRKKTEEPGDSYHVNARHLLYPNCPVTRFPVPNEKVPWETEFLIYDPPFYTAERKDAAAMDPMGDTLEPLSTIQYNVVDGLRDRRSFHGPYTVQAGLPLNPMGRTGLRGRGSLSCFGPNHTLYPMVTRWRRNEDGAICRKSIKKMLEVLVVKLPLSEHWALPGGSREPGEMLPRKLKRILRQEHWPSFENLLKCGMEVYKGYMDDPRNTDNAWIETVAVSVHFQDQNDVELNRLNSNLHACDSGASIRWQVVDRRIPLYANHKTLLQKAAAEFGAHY
Procedure: as §1, §2, §3, §4

[1] = target: recombinant human CYP3A4 enzyme (Homo sapiens, UniProt P08684); assay: CYP3A4 incubation assay; format: in vitro ADME
recombinant human CYP3A4 enzyme, sequence (P08684 whole entry): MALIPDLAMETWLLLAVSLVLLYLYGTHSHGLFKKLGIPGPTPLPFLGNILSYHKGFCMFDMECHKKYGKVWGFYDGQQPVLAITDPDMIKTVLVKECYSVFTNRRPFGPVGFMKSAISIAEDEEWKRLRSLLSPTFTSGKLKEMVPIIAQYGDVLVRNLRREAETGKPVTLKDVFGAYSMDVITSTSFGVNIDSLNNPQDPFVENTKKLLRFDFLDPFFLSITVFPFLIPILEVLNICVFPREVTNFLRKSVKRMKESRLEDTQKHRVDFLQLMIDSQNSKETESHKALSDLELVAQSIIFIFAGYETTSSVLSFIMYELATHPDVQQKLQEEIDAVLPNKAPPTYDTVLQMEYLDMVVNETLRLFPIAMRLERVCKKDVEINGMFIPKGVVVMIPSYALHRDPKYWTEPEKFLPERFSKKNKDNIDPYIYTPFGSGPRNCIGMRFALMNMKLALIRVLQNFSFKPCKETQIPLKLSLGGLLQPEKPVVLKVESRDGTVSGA
Procedure: Example 24. CYP3A4 Incubation Assay
Compounds (final concentration […]) were incubated in 100 mM phosphate buffer containing 100 pmol/mL recombinant human CYP3A4 enzyme for 0, 5, 10, 15 and 25 minutes.
Testosterone was used as positive control. Reaction was initiated by the addition of NADPH (final concentration […]) and carried out at 37° C. The reaction was stopped by the addition of 4 volumes of cold acetonitrile (with 100 nM alprazolam, 200 nM labetalol, 200 nM imipramine and 2 μM ketoprofen as internal standards). Samples were centrifuged at 3,220 g for 40 minutes to precipitate protein. 70 μL supernatant was transferred to the analysis plate containing 110 μL of acetonitrile for LC-MS/MS analysis.
The following table indicates the percentage remaining for the indicated examples after incubation with recombinant Human CYP3A4 after 25 minutes under the same conditions as described for Example […].

Human TRPV4, sequence (Q9HBA0 whole entry): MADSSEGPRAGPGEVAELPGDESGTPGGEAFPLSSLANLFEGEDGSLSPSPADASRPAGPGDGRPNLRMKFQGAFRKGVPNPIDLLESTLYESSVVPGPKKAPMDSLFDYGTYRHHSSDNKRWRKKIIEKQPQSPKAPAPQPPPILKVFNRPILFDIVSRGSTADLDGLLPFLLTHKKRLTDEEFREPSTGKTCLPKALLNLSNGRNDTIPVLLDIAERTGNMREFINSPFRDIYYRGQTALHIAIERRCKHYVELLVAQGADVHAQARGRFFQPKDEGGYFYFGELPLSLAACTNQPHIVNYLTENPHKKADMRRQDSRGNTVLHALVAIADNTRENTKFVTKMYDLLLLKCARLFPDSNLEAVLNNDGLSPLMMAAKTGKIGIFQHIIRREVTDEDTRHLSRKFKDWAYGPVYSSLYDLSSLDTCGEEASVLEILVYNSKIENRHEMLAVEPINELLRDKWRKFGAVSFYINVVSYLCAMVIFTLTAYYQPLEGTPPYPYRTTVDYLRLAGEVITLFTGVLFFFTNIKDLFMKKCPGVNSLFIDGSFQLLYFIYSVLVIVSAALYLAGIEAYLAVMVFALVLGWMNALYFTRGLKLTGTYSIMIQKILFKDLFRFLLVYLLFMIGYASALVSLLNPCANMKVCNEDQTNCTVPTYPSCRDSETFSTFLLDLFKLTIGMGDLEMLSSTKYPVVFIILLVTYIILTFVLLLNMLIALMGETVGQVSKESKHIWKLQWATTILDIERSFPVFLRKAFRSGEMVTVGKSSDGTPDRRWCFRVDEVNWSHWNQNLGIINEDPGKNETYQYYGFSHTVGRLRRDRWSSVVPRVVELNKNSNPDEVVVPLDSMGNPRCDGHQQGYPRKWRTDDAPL

SMILES: CC(C)(O)c1cnc(N2C[C@@]3(CC[C@@H](F)[C@](C)(Cn4cnc5ccc(C#N)cc54)C3)OC2=O)cn1 (single isomer, unassigned) [Example 5]
- EC50 (Human TRPV4; agonist mode, vs EMAX of GSK1016790A 3 μM, read-out: EC50 hTRPV4): > 10 µM
- IC50 (Human TRPV4; antagonist mode, activated with GSK1016790A 0.3 μM, 0.003-10 μM, read-out: IC50 hTRPV4): 0.014 µM
- EC50 (TRPM4 channels; agonist mode, vs EMAX of A23187 3.3 μM, read-out: EC50 hTRMP4): > 10 µM
- IC50 (TRPM4 channels; antagonist mode, activated with A23187 10 μM, 0.003-10 μM, read-out: IC50 hTRMP4): > 10 µM
- EC50 (TRPM2 channels; agonist mode, vs EMAX of H2O2 333 μM, read-out: EC50 hTRPM2): > 10 µM
- IC50 (TRPM2 channels; antagonist mode, activated with 300 μM H2O2, 0.003-10 μM, read-out: IC50 hTRPM2): > 10 µM
- CYP3A4 Clint ([1]; 100 pmol/mL recombinant human CYP3A4, 37° C., 0-25 min): 0.09 μL/min/pmol CYP450 and < 0.07 μL/min/pmol CYP450
- Metabolic Stability in Recombinant Human CYP3A4 + NADPH (% remaining after 25 min) ([1]; recombinant Human CYP3A4 + NADPH, 25 min): 100%
